Data set [1] is described as follows: Metabolic stability in mouse liver microsomes. The class given is in vitro ADME. The conditions noted are these: mouse liver microsomes 0.5 mg/mL; read-out: Mouse liver microsomes Half-life t1/2. The procedure: (§1) Step 1: the mother liquor is prepared according to the composition ratio in Table 3 below:
(§2) Step 2: two experiments were respectively carried out as follows:
(§3) A) Adding NADPH:10 μL of liver microsomes at a concentration of 20 mg/mL and 40 μL of NADPH at a concentration of 10 mM were added to the incubation test. The final concentrations of liver microsomes and NADPH were 0.5 mg/mL and 1 mM, respectively.
(§4) B) Without addition of NADPH:10 μL of liver microsomes at a concentration of 20 mg/mL and 40 μL of high purity water were added to the incubation test. The final concentration of liver microsome was 0.5 mg/mL.
(§5) Step 3: 4 μL of 200 µM positive control or test compound was added and then the reaction was carried out. The positive control in this experiment was Verapamil. The final concentration of test compound was […].
(§6) Step 4: 50 μL was respectively taken out from the reaction solutions at the time points of 0, 15, 30, 45 and 60 min. 4× volumes of acetonitrile and IS (alprazolam at the concentration of 100 nM, labetalol at the concentration of 200 nM, caffeine at the concentration of 200 nM and ketoprofen at the concentration of 2 μM) were added to the reaction solution. The sample was centrifuged at 3,220 gram gravity for 40 minutes. 100 μL high-purity water was added to 100 μL supernatant and then analyzed by LC-MS/MS.
(§7) Step 5: Data analysis: the peak area was determined from the extracted ion chromatogram. The slope value k was determined by linear regression of the natural logarithm from the curve produced by the remaining percentage of the parent drug vs the incubation time.
(§8) In vitro half-life (in vitro t1/2) is determined by the slope value: in vitro t1/2=−(0.693/k)
A general note: Liver microsomes are vesicles of endoplasmic reticulum, rich in cytochrome P450 enzymes.

Data set [2] can be described thus: Metabolic stability in human liver microsomes. The class given is in vitro ADME. The conditions noted are these: human liver microsomes 0.5 mg/mL; read-out: Human liver microsomes Half-life t1/2. The procedure:
as §1, §2, §3, §4, §5, §6, §7, §8

The nature of data set [3]: Metabolic stability in rat liver microsomes. As to conditions: rat liver microsomes 0.5 mg/mL; read-out: Rat liver microsomes Half-life t1/2. The class given is in vitro ADME. The method, then: as §1, §2, §3, §4, §5, §6, §7, §8
Data set [4] has as its target human IDO1 protease (Homo sapiens (Human), UniProt P14902). The data set can be described thus: Inhibitory activity against human IDO1 protease (absorbance test method). The conditions noted are these: IDO1 (His-tag) enzyme, absorbance at 320 nm. The class given is biochemical. The procedure:
IDO1 (His-tag) enzyme(BPS Bioscience), L-tryptophan (Sigma), methylene blue (Sigma), Catalase originated from the liver of cattle (Sigma), L-ascorbic acid (Sigma), glycerol (Sigma), potassium dihydrogen phosphate solution (Sigma), Tween 20 (Sigma), automatic sampling platformLiquid handler (Bravo & Echo), microplate ReaderSpectraMax M5e (Molecular Devices).
2) Test Method of Compounds: The Compounds are Determined by Absorbance Test Method:
The tested compounds are dissolved in DMSO to prepare a high concentration of storage solution. The stock solution of reference compound was diluted with DMSO to prepare a 100× solution. In the first column of the working plate, 8 μL above tested compounds and 8 μL 100× reference compound were respectively added as the highest concentration, and then the highest concentrations were subjected to three times dilution to obtain 11 concentrations and prepare 100× solution. 0.5 μL solution was transferred from the above plate to the detection plate. To each well was added 0.5 μL 100× compound solution. For HPE and ZPE control wells, 0.5 μL 100% DMSO was added. 25 μL 2×IDO1 (His-tag) enzyme solution (containing L-ascorbic acid, methylene blue, and catalase) was added to each well. 25 μL reaction solution without IDO1 (His-tag) enzyme was added into HPE control well. The test plate was centrifugated at 1000 rpm for 1 minute to mix well. Then, the test plate was incubated at room temperature for 30 minutes. 25 μL above 2× substrate (L-tryptophan) solution was added to each well. The test plate was centrifugated at 1000 rpm for 1 minute to mix well. The detection plate was placed on ELISA (SpectraMax M5e), the temperature was set at 25° C., and the absorbance (OD value) was measured at 320 nm every 10 minutes till 60 minutes.
Calculating the increase ratio of absorbance: the slope of the absorbance increase curve from 10 min to 60 min is derived from SpectralMax M5e. The inhibition coefficient of compound was calculated: the inhibition ratio of compound=(the absorbance increase ratio of ZPE control well−the absorbance increase ratio of compound well)/(the absorbance increase ratio of ZPE control well−the absorbance increase ratio of HPE control well)×100. Results was analyzed by Prism 5.0.

The nature of data set [5]: Pharmacokinetic experiment in mice (PO). The class given is in vivo. The conditions noted are these: ICR, mouse, plasma, 10 mg/kg, 10 mpk; for Cmax: read-out: Blood concentration Cmax; for AUC: read-out: Curve area AUC; for half-life: read-out: Half life t1/2 (converted); for Tmax: read-out: Peak hour tmax. The procedure:
Experimental animals: ICR mice (Chengdu Dashuo Experimental Animal Co., Ltd.)
5 mg of compound (compound 4 of the present invention, using similar compound INCB-24360 in clinical Phase III as reference compound) was accurately weighed, and the corresponding vehicle was added to a final volume of 10 ml, then mixed by ultrasonic vortexing. The solution at the concentration of 0.5 mg/ml was prepared. The final solution (0.2 ml) prepared was stored at −20° C. for concentration determination. 9 healthy adult ICR mice (20-30 g) were fasted overnight (free access to water), and received the administration volume of 0.2 ml/10 g by gavage; just prior to administration and 0.5, 1, 2, 4, 6, 8, 12, and 24 h after administration, 0.1 ml blood was collected from the retroorbital venous plexus, centrifuged at 4° C. for 5 min to separate the plasma, and stored at −20° C. for testing. Then the concentration of test compound in plasma was measured by LC/MS/MS method.

For data set [6], the target named is IDO1 protease activity in Hela cells (Homo sapiens (Human), UniProt P14902). Put plainly: Inhibition of IDO protease in HeLa cells (IDO/kynurenine experiment, IFN-γ induced). The class given is cell-based. As to conditions: 10 ng/mL IFN-γ, 48 h, OD480 nm, read-out: IC50, inhibitory activity against IDO1 protease activity in Hela cells. The method, then: 2) Experimental Method for Compound Assay 2.1 Seeding HeLa Cells into 96 Well Plate
Sequence of IDO1 protease activity in Hela cells (P14902 whole entry): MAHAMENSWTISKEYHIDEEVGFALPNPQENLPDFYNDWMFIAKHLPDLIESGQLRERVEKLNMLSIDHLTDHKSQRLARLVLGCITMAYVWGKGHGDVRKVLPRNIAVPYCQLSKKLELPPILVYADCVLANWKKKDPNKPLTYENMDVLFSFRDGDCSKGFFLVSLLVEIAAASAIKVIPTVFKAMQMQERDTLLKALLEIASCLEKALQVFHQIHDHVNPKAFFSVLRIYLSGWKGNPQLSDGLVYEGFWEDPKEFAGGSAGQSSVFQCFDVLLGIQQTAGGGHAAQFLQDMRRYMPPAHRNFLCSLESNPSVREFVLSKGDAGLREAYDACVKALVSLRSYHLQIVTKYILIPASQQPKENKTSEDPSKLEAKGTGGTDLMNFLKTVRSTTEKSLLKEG
The medium was taken out from the flask and the cells were washed with PBS. TrypLE solution was added to the flask to make the cells separate. The cells were further washed once with fresh medium containing 10% FBS, and then re-suspended in the medium until the final concentration was 2.3×10^6/mL. Only cells with activity greater than 90% can be used for detection. HeLa cells were planted into 100 μL suitable growth median 96 well plate at 3000 cells/well. The cells were incubated at 37° C. under 5% CO2 overnight.
The compound was diluted to the concentration of 10 mM with DMSO, that was then continuously diluted 3 times to get 9 concentrations. 5 μL compound was added into 45 μL media as the median dilution (10 times dilution, containing 10% DMSO). 96 μL fresh growth media were added to each well to reach the total volume of 196 μL. 2 μL compound solution was taken from the mid-diluted solution and added to the cells in the wells of the assay plate, and then incubated in a 5% CO2 incubator at 37° C. for 30 minutes. 2 μL human IFN-γ solution was added to reach a total volume of 200 μL, with the final concentration of 10 ng/mL, and the final concentration is 0.1%. The cells were incubated in 5% CO2 incubator at 37° C. for 48 h.
After incubating for another 48 hours in a 5% CO2 incubator at 37° C., 140 μL supernatant was added to each well and transferred to a new 96-well plate. 10 μL of 6.1N CCl3COOH was further added to each well, and incubated at 50° C. for 30 min after sealing. The plate was then centrifuged at 2500 rpm for 10 minutes. 100 μL supernatant in each well was transferred to another 96-well assay plate and mixed with 100 μL of 6% (w/v) p-dimethylaminobenzaldehyde. EnSpire was used to read the plate at OD480 nm.
The average data of HC (high control: 10 ng/mL IFN-γ) and LC (low control: no IFN-γ) were calculated for each screening plate. Percent inhibition of compound well (% inh)=100*(aveHC−cpd well)/(aveHC−ave LC). Finally, GraphPad Prism 6 software was used to calculate the IC50 values of compounds and draw the effect-concentration curve.

Molecules are shown by their SMILES.

Data on six molecules can be found in patent publication US11591301B2, “Indoleamine-2,3-dioxygenase inhibitor, preparation method therefor and use thereof” (HINOVA PHARMACEUTICALS INC., priority 2018, dated 2023).

Sequence of human IDO1 protease (P14902 whole entry): as above

Usually IC50 stands for the concentration needed to halve the response being measured. A word on the AUC: it is the area under the concentration-time curve, a measure of exposure. The Tmax is the time from dosing to the highest level. Turning to `NS(=O)(=O)CCNc1nonc1C(=NO)Nc1ccc(F)c(Br)c1` [Example 1, N-(3-bromo-4-fluorophenyl)-N′-hydroxyl-4-((2-sulfamoylethyl)amino)-1,2,5-oxadiazol-3-formamidine], in data set [1], the half-life at 2 µM worked out at 0.8 h. Also, the half-life at 2 µM in data set [2] turned out to be 7.45 h. For the same molecule, the half-life at 2 µM in data set [3] was 1.73 h. The same molecule showed an IC50 in data set [4] of 19 nM. For the same molecule, in data set [5], the Cmax turned out to be 555 ng/mL, the exposure (AUC) was determined as 1320 ng·h/mL, the half-life was 1.28 h and the Tmax turned out to be 0.67 h.
`CNS(=O)(=O)CCCNc1nonc1/C(=N/O)Nc1ccc(F)c(Br)c1` [Example 11, N-(3-bromo-4-fluorophenyl)-N′-hydroxyl-4-((3-(N-methylsulfamoyl)propyl)amino)-1,2,5-oxadiazol-3-formamidine]: in data set [1], the half-life at 2 µM was 0.167 h. Further, in data set [2], the half-life at 2 µM amounted to 1.55 h. Moreover, the half-life at 2 µM in data set [3] was 0.4 h. In data set [5], the Cmax was found to be 687 ng/mL, the area under the curve (AUC) turned out to be 845 ng·h/mL, the half-life is 1.15 h and the time of peak concentration (Tmax) amounted to 0.5 h. In addition, the IC50 in data set [6] turned out to be 8 nM.
`CCNS(=O)(=O)CCCNc1nonc1C(=NO)Nc1ccc(F)c(Br)c1` [Example 12, N-(3-bromo-4-fluorophenyl)-N′-hydroxyl-4-((3-(N-ethylsulfamoyl)propyl)amino)-1,2,5-oxadiazol-3-formamidine]: in data set [1], the half-life at 2 µM was 0.383 h. For the same molecule, the half-life at 2 µM in data set [2] was found to be 2.73 h. The half-life at 2 µM in data set [3] is 0.317 h. Moreover, the IC50 in data set [4] amounted to 47 nM. In data set [5], the Cmax turned out to be 704 ng/mL, the AUC amounted to 1080 ng·h/mL, the half-life is 2.87 h and the Tmax worked out at 0.5 h. Further, the IC50 in data set [6] came out at 12 nM.
In the case of `NS(=O)(=O)CCCCNc1nonc1C(=NO)Nc1ccc(F)c(Br)c1` [Example 22, N-(3-bromo-4-fluorophenyl)-N′-hydroxyl-4-((4-sulfamoylbutyl)amino)-1,2,5-oxadiazol-3-formamidine], the half-life at 2 µM in data set [1] was determined as 1.45 h; in data set [2], 29.4 h; in data set [3] it was 1.22 h. Besides, the IC50 in data set [6] is 12 nM.
As for `[2H]C([2H])([2H])NS(=O)(=O)CCCNc1nonc1/C(=N/O)Nc1ccc(F)c(Br)c1` [Example 27, N-(3-bromo-4-fluorophenyl)-N′-hydroxyl-4-((3-(N-(methyl-d3)sulfonyl)propyl)amino)-1,2,5-oxadiazol-3-oximecarboxamide], the half-life at 2 µM in data set [1] was 0.35 h. Besides, the half-life at 2 µM in data set [2] stood at 5.72 h. For the same molecule, in data set [3], the half-life at 2 µM amounted to 0.633 h. In data set [5], the Cmax is 469 ng/mL, the area under the curve (AUC) was 1050 ng·h/mL, the half-life is 2.5 h and the Tmax was 0.5 h. Also, the IC50 in data set [6] came out at 10 nM.
As to `NS(=O)(=O)NCCNc1nonc1C(=NO)Nc1ccc(F)c(Br)c1` [INCB024360, reference compound], the half-life at 2 µM in data set [1] worked out at 1.3 h; in data set [2], 2.62 h; in data set [3], 2.43 h.
